Data published in ChEMBL document CHEMBL6115022, “The Heterogeneous Kinetic Origins of the Binding Properties of Orthosteric Ligands at Heteromeric Nicotinic Acetylcholine Receptors” (J Med Chem, 2025).

Key:
[1] = molecular target: T1, Neuronal acetylcholine receptor; alpha4/beta2 (Homo sapiens, UniProt P17787+P43681); assay: Displacement of [3H]epibatidine from human alpha4beta2 nAChR extracted from HEK293 cell membrane assessed as residence time incubated for 240 mins by liquid scintillation counting method; type: cell membranes
T1 sequence (P17787 whole entry): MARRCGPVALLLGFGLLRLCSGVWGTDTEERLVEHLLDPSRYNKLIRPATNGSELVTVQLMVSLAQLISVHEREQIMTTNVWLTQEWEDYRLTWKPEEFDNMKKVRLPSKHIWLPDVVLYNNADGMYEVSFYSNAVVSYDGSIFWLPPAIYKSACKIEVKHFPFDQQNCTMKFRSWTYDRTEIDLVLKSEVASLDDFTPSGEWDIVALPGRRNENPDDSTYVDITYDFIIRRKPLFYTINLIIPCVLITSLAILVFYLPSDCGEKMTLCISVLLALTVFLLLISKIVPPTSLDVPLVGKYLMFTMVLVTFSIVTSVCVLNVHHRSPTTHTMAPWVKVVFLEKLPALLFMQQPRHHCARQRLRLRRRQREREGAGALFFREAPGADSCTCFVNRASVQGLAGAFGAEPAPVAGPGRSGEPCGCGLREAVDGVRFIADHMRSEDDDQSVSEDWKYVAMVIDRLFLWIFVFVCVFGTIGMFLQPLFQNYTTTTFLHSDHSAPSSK
T1 sequence (P43681 whole entry): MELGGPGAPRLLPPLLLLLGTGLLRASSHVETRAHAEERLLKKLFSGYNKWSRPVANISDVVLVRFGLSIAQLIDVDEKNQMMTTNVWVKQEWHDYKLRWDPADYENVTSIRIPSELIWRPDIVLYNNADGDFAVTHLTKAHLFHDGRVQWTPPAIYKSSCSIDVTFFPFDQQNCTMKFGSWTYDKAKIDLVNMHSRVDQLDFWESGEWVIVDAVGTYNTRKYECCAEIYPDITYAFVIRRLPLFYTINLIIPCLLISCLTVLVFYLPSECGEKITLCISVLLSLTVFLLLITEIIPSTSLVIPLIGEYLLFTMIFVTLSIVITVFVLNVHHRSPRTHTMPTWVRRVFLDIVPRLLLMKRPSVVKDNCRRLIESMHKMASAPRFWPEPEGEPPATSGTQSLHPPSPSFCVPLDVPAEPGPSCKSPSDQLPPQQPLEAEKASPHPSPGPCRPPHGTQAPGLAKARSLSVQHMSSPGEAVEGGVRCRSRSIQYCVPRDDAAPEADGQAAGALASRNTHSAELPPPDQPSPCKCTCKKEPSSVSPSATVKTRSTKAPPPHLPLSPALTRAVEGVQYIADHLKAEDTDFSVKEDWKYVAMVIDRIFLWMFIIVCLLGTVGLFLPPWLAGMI

[2] = molecular target: T1, Neuronal acetylcholine receptor; alpha4/beta2; assay: Displacement of [3H]epibatidine from human alpha4beta2 nAChR extracted from HEK293 cell membrane assessed as dissociation constant incubated for 240 mins by liquid scintillation counting method; type: cell membranes
[3] = molecular target: T2, Neuronal acetylcholine receptor; alpha3/beta4 (Rattus norvegicus) (UniProt P04757+P12392); assay: Displacement of [3H]epibatidine from rat alpha3beta4 nAChR extracted from HEK293 cell membrane assessed as residence time incubated for 60 to 120 mins by liquid scintillation counting method; type: cell membranes; details: filed as agonist, time lower 60.0 min, time upper […]
[4] = molecular target: T1, Neuronal acetylcholine receptor; alpha4/beta2; assay: Displacement of [3H]epibatidine from human alpha4beta2 nAChR extracted from HEK293 cell membrane assessed as dissociation binding constant (Koff) incubated for 240 mins by liquid scintillation counting method; type: cell membranes
[5] = Selectivity index, ratio of Ki for displacement of [3H]epibatidine from rat alpha3beta4 nAChR extracted from HEK293 cell membrane to Ki for displacement of [3H]epibatidine from human alpha4beta2 nAChR extracted from HEK293 cell membrane
[6] = molecular target: T1, Neuronal acetylcholine receptor; alpha4/beta2; assay: Displacement of [3H]epibatidine from human alpha4beta2 nAChR extracted from HEK293 cell membrane assessed as inhibition constant incubated for 240 mins by liquid scintillation counting method; type: cell membranes
[7] = molecular target: T2, Neuronal acetylcholine receptor; alpha3/beta4 (Rattus norvegicus); assay: Displacement of [3H]epibatidine from rat alpha3beta4 nAChR extracted from HEK293 cell membrane assessed as dissociation binding constant (Koff) incubated for 60 to 120 mins by liquid scintillation counting method; type: cell membranes; details: filed as agonist, time lower 60.0 min, time upper […]
[8] = molecular target: T1, Neuronal acetylcholine receptor; alpha4/beta2; assay: Displacement of [3H]epibatidine from human alpha4beta2 nAChR extracted from HEK293 cell membrane assessed as association binding constant (Kon) incubated for 240 mins by liquid scintillation counting method; type: cell membranes
[9] = molecular target: T3, Neuronal acetylcholine receptor; alpha3/beta4 (Rattus norvegicus, UniProt P04757+P12392); assay: Displacement of [3H]epibatidine from rat alpha3beta4 nAChR extracted from HEK293 cell membrane assessed as inhibition constant incubated for 60 to 120 mins by liquid scintillation counting method; type: cell membranes
T3 sequence (P04757 whole entry): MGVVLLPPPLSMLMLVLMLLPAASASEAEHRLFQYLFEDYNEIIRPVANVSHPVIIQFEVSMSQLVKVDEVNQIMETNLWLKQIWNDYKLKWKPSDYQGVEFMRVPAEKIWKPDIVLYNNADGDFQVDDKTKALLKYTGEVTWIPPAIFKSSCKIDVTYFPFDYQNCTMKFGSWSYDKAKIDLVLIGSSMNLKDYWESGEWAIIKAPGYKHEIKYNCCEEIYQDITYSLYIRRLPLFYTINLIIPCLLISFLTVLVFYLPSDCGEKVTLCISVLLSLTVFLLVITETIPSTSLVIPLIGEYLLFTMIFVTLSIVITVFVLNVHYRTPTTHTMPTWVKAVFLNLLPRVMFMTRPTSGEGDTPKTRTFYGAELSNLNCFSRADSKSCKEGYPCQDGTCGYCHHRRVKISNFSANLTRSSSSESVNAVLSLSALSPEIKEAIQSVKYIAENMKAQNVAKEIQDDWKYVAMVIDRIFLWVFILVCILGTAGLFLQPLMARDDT
T3 sequence (P12392 whole entry): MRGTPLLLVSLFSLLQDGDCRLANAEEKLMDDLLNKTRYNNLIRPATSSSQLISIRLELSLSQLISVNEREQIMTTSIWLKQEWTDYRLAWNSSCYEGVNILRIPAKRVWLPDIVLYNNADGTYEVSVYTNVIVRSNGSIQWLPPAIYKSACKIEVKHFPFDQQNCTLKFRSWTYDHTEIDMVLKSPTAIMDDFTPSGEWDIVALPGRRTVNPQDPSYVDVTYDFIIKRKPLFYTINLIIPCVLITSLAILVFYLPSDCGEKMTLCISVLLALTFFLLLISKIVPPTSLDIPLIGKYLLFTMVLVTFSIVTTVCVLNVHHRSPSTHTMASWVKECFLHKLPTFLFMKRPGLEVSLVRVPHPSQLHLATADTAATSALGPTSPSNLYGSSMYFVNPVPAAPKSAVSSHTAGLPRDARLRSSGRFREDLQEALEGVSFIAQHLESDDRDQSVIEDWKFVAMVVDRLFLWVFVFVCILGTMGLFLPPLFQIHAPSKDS

[10] = molecular target: T2, Neuronal acetylcholine receptor; alpha3/beta4 (Rattus norvegicus); assay: Displacement of [3H]epibatidine from rat alpha3beta4 nAChR extracted from HEK293 cell membrane assessed as association binding constant (Kon) incubated for 60 to 120 mins by liquid scintillation counting method; type: cell membranes; details: filed as agonist, time lower 60.0 min, time upper […]
[11] = molecular target: T3, Neuronal acetylcholine receptor; alpha3/beta4; assay: Displacement of [3H]epibatidine from rat alpha3beta4 nAChR extracted from HEK293 cell membrane assessed as dissociation constant incubated for 60 to 120 mins by liquid scintillation counting method; type: cell membranes
[12] = molecular target: T1, Neuronal acetylcholine receptor; alpha4/beta2; assay: Displacement of [3H]epibatidine from human alpha4beta2 nAChR extracted from HEK293 cell membrane assessed as fold increase in […] binding constant (Koff) incubated for 240 mins by liquid scintillation counting method relative to (+)-DHbetaE; type: cell membranes; details: filed as antagonist
[13] = molecular target: T1, Neuronal acetylcholine receptor; alpha4/beta2; assay: Displacement of [3H]epibatidine from human alpha4beta2 nAChR extracted from HEK293 cell membrane assessed as fold increase in association binding constant (Kon) incubated for 240 mins by liquid scintillation counting method relative to (+)-DHbetaE; type: cell membranes; details: filed as antagonist
[14] = Selectivity index, ratio of K(on) for displacement of [3H]epibatidine from human alpha4beta2 nAChR extracted from HEK293 cell membrane to K(on) for displacement of [3H]epibatidine from rat alpha3beta4 nAChR extracted from HEK293 cell membrane
[15] = Selectivity index, ratio of K(off) for displacement of [3H]epibatidine from human alpha4beta2 nAChR extracted from HEK293 cell membrane to K(off) for displacement of [3H]epibatidine from rat alpha3beta4 nAChR extracted from HEK293 cell membrane

Row | SMILES | TIME ([1]; filed as agonist) [h] | Kd [2] [nM] | TIME [3] [h] | K ([4]; filed as agonist) [min⁻¹] | Ratio Ki [5] | Ki [6] [nM] | K [7] [min⁻¹] | K ([8]; filed as agonist) [M⁻¹ s⁻¹] | Ki [9] [nM] | K [10] | Kd [11] [nM] | TIME ([1]; filed as antagonist) [h] | Ratio [12] | K ([4]; filed as antagonist) [min⁻¹] | Ratio [13] | K ([8]; filed as antagonist) | Ratio [14] | Ratio [15]
1 | CCOc1cncc(/C=C/CCNC)c1 | 0.0417 | 1.7 | 0.0283 | 0.57 | 7000 | 0.8 | 0.77 | 4.83e+06 | 25000 | 0.064 10^-3/nM/min | 12000 |  |  |  |  |  |  | 
2 | O=c1cccc2n1C[C@@H]1CNC[C@H]2C1 [CYTISINICLINE] | 0.367 | 0.21 | 0.075 | 0.05 | 150 | 0.2 | 0.24 | 4.33e+06 | 110 | 33300 M⁻¹ s⁻¹ | 150 |  |  |  |  |  |  | 
3 | C[N+](C)(C)CCOC(N)=O [CARBAMOYLCHOLINE] | 0.09 | 200 | 0.06 | 0.25 | 8 | 56 | 0.33 | 16700 | 2000 | 0.31 10^-3/nM/min | 1500 |  |  |  |  |  |  | 
4 | CO[C@H]1CC=C2CCN3CCc4ccc(O)cc4[C@]23C1 |  | 2.9 |  |  |  | 3.1 |  |  |  |  |  | 0.15 | 13 | 0.12 | 130 | 750000 M⁻¹ s⁻¹ |  | 
5 | CO[C@H]1CC=C2CCN3CCC4=C(CC(=O)OC4)[C@]23C1 |  |  |  |  |  |  |  |  |  |  |  | 1.87 |  | 0.01 |  | 0.3 10^-3/nM/min |  | 
6 | Cc1ncccc1OC[C@@H]1CCCN1 [POZANICLINE] | 0.0783 |  | 0.04 | 0.23 |  |  | 0.44 | 517000 | 10000 | 0.03 10^-3/nM/min | 17000 |  |  |  |  |  |  | 
7 | CN1CCC[C@H]1c1cccnc1 | 0.0683 |  | 0.0683 | 0.27 |  |  | 0.3 | 3.83e+06 |  | 33300 M⁻¹ s⁻¹ |  |  |  |  |  |  |  | 
8 | Clc1ccc(C2CC3CCC2N3)cn1 (racemic) | 1.4 |  | 0.103 | 0.012 |  |  | 0.17 | 2.17e+07 |  | 2.17e+07 M⁻¹ s⁻¹ |  |  |  |  |  |  |  | 
9 | OCCCCC#Cc1cncc(OC[C@@H]2CCN2)c1 | 4.5 | 0.006 | 0.0467 | 0.004 | 7000 | 0.017 | 0.39 | 1.12e+07 | 2200 | 0.2 10^-3/nM/min | 2200 |  |  |  |  |  | 3000 | 100
